Measured values: patent publication US10660334B2, “Fused bicyclic heterocycle derivatives as pesticides” (Bayer CropScience Aktiengesellschaft, priority 2016, dated 2020)

Columns and labels:
[1] = system: Phaedon cochleariae; assay: Phaedon cochleariae spray test; assay type: in vivo; conditions: spray on Chinese cabbage leaf discs, after 7 days
Protocol: Phaedon cochleariae—Spray Test
Solvent: 78.0 parts by weight of acetone • • 1.5 parts by weight of dimethylformamide
Emulsifier: alkylaryl polyglycol ether
To produce a suitable active ingredient formulation, 1 part by weight of active ingredient is dissolved with the specified parts by weight of solvent and made up to the desired concentration with water containing an emulsifier concentration of 1000 ppm. To produce further test concentrations, the formulation is diluted with emulsifier-containing water.
Discs of Chinese cabbage leaves (Brassica pekinensis) are sprayed with an active ingredient formulation of the desired concentration and, after drying, populated with larvae of the mustard beetle (Phaedon cochleariae).
After 7 days, the efficacy in % is determined. 100% means that all the beetle larvae have been killed; 0% means that no beetle larvae have been killed.

[2] = log P by HPLC on reversed-phase column (EEC Directive 79/831 Annex V.A8), acidic range; assay type: physicochemical; conditions: reversed-phase C18 HPLC column; HPLC reversed-phase C18, 55° C., pH 2.7, 0.1% aqueous formic acid and acetonitrile; read-out: log P (HCOOH)
Protocol: The log P values are measured according to EEC Directive 79/831 Annex V.A8 by HPLC (high-performance liquid chromatography) on a reversed-phase column (C18). Temperature: 55° C. The LC-MS determination in the acidic range is effected at pH 2.7 with 0.1% aqueous formic acid and acetonitrile (containing 0.1% formic acid) as eluents; linear gradient from 10% acetonitrile to 95% acetonitrile. Called log P (HCOOH) in the table.

[3] = system: Myzus persicae; assay: Myzus persicae spray test; assay type: in vivo; conditions: foliar, 120 h, spray on Chinese cabbage leaf discs, after 5 days, read-out: efficacy (aphids killed); for pest or weed control at 20 g/ha: application rate 20 g/ha; for pest or weed control at 100 g/ha: application rate 100 g/ha
Protocol: Myzus persicae—Spray Test Solvent: 78 parts by weight of acetone • • 1.5 parts by weight of dimethylformamide Emulsifier: alkylaryl polyglycol ether To produce a suitable active ingredient formulation, 1 part by weight of active ingredient is dissolved with the specified parts by weight of solvent and made up to the desired concentration with water containing an emulsifier concentration of 1000 ppm. To produce further test concentrations, the formulation is diluted with emulsifier-containing water. Discs of Chinese cabbage leaves (Brassica pekinensis) infested by all stages of the green peach aphid (Myzus persicae) are sprayed with an active ingredient formulation of the desired concentration. After 5 days, the efficacy in % is determined. 100% means that all the aphids have been killed; 0% means that no aphids have been killed.

[4] = system: Myzus persicae; assay: Myzus persicae oral test; assay type: in vivo; conditions: 120 h, application rate 4 ppm, after 5 days, read-out: efficacy (aphids killed)
Protocol: Myzus persicae—Oral Test Solvent: 100 parts by weight of acetone To produce a suitable active ingredient formulation, 1 part by weight of active ingredient is dissolved with the stated parts by weight of solvent and made up to the desired concentration with water. 50 μl of the active ingredient preparation are transferred into microtitre plates and made up to a final volume of 200 μl with 150 μl of IPL41 insect medium (33%+15% sugar). Subsequently, the plates are sealed with parafilm, which a mixed population of green peach aphids (Myzus persicae) within a second microtitre plate is able to puncture and imbibe the solution. After 5 days, the efficacy in % is determined. 100% means that all the aphids have been killed; 0% means that no aphids have been killed.

[5] = system: Lucilia cuprina; assay: Lucilia cuprina test; assay type: in vivo; conditions: application rate 100 ppm, L1 larvae, after 2 days
Protocol: Lucilia cuprina Test Solvent: dimethyl sulfoxide To produce a suitable active ingredient formulation, 10 mg of active ingredient are mixed with 0.5 ml of dimethyl sulfoxide, and the concentrate is diluted with water to the desired concentration. About 20 L1 larvae of the Australian sheep blowfly (Lucilia cuprina) are transferred into a test vessel containing minced horsemeat and the active ingredient formulation of the desired concentration. After 2 days, the kill in % is determined. 100% means that all the larvae have been killed; 0% means that no larvae have been killed.

[6] = system: Musca domestica; assay: Musca domestica test; assay type: in vivo; conditions: application rate 100 ppm, adult houseflies, after 2 days
Protocol: Musca domestica Test Solvent: dimethyl sulfoxide To produce a suitable active ingredient formulation, 10 mg of active ingredient are mixed with 0.5 ml of dimethyl sulfoxide, and the concentrate is diluted with water to the desired concentration. Vessels containing a sponge treated with sugar solution and the active ingredient formulation of the desired concentration are populated with 10 adult houseflies (Musca domestica). After 2 days, the kill in % is determined. 100% means that all of the flies have been killed; 0% means that none of the flies have been killed.

| SMILES | chromatographic logP [2] | pest or weed control at 20 g/ha [3] | pest or weed control at 100 g/ha [3] | pest or weed control at 4 ppm [4] | further results |
| --- | --- | --- | --- | --- | --- |
| CCS(=O)(=O)c1c(-c2nc3cc(C(F)(F)F)ncc3n2C)nc2n1CCCC2 [Example I-002, 2-(3-Ethylsulfonyl-5,6,7,8-tetrahydroimidazo[1,2-a]pyridin-2-yl)-3-methyl-6-(trifluoromethyl)imidazo[4,5-c]pyridine] | 1.97 | 90% | 90% |  | efficacy (beetle larvae killed) ([1]; application rate 500 g/ha): 83%; pest or weed control at 500 g/ha ([3]; application rate 500 g/ha): 90% |
| CCS(=O)(=O)c1c(-c2nc3cc(C(F)(F)F)ncc3n2C)nc2n1CCCC2C(F)(F)F (stereo not drawn) [Example I-004] |  |  |  | 100% |  |
| CCS(=O)(=O)c1c(-c2nc3cc(C(F)(F)F)ncc3n2C)nc2n1CCCC2(O)C(F)(F)F (stereo not drawn) [Example I-006] |  |  |  | 100% |  |
| Cn1c(-c2nc3n(c2S(C)(=O)=O)CCCC3)nc2cc(C(F)(F)F)cnc21 [Example I-014] |  |  | 90% | 100% | efficacy (kill) [5]: 100%; efficacy (kill) [6]: 100% |
| CCS(=O)(=O)c1c(-c2nc3cc(C(F)(F)F)ccc3n2C)nc2n1CCCC2 [Example I-015] |  | 90% | 90% | 100% | efficacy (kill) [5]: 100%; efficacy (beetle larvae killed) ([1]; application rate 100 g/ha): 83%; efficacy (kill) [6]: 90% |
| Cn1c(-c2nc3n(c2S(C)(=O)=O)CCCC3)nc2cc(C(F)(F)F)ccc21 [Example I-016] |  |  |  | 100% |  |
| Cn1c(-c2nc3n(c2S(C)(=O)=O)CCCC3)nc2cc(C(F)(F)F)cnc21 [Example I-018] |  | 90% |  |  |  |
| CCS(=O)(=O)c1c(-c2nc3cc(C(F)(F)F)nc(C(C)C)c3n2C)nc2n1CCCC2 [Example I-019] |  | 90% | 90% | 100% |  |
| CCS(=O)(=O)c1c(-c2nc3cc(SC(F)(F)F)cnc3n2C)nc2n1CCCC2 [Example I-020] |  | 90% | 90% | 100% | efficacy (beetle larvae killed) ([1]; application rate 100 g/ha): 100% |
| CCS(=O)(=O)c1c(-c2nc3cc(S(=O)(=O)C(F)(F)F)cnc3n2C)nc2n1CCCC2 [Example I-021] |  | 90% | 100% | 100% | efficacy (beetle larvae killed) ([1]; application rate 100 g/ha): 100% |
| CCS(=O)(=O)c1c(-c2nc3cc([S+]([O-])C(F)(F)F)cnc3n2C)nc2n1CCCC2 (stereo not drawn) [Example I-022] |  | 90% |  | 100% |  |
| Cn1c(-c2nc3n(c2S(C)(=O)=O)CCCC3)nc2cc(SC(F)(F)F)cnc21 [Example I-023] |  | 90% | 90% | 100% |  |
| CCS(=O)(=O)c1c(-c2nc3cc(C(F)(F)F)ncc3n2C)nc2n1CCCC2O (stereo not drawn) [Example I-024, 3-Ethylsulfonyl-2-[3-methyl-6-(trifluoromethyl)imidazo[4,5-c]pyridin-2-yl]-5,6,7,8-tetrahydro-imidazo[1,2-a]pyridin-8-ol] | 1.6 |  | 90% | 100% |  |
| CCS(=O)(=O)c1c(-c2nc3cc(C(F)(F)F)nc(C(F)F)c3n2C)nc2n1CCCC2 [Example I-025, 4-(Difluoromethyl)-2-[3-(ethylsulfonyl)-5,6,7,8-tetrahydroimidazo[1,2-a]pyridin-2-yl]-3-methyl-6-(trifluoromethyl)-3H-imidazo[4,5-c]pyridine] | 2.8 |  |  | 100% |  |
| CCS(=O)(=O)c1c(-c2nc3cc(C(F)(F)F)ncc3n2C)nc2n1CCCC2F (stereo not drawn) [Example I-026, 2-[3-(Ethylsulfonyl)-8-fluoro-5,6,7,8-tetrahydroimidazo[1,2-a]pyridin-2-yl]-3-methyl-6-(trifluoromethyl)-3H-imidazo[4,5-c]pyridine] | 2.11 |  |  |  |  |
| CCS(=O)(=O)c1c(-c2nc3cc(C(F)(F)F)ncc3n2C)nc2n1CCC(C)(C)C2 [Example I-031, 2-(3-Ethysulfonyl-7,7-dimethyl-6,8-dihydro-5H-imidazo[1,2-a]pyridin-2-yl)-3-methyl-6-(trifluoromethyl)imidazo[4,5-c]pyridine] | 2.51 |  |  |  |  |
| CCS(=O)(=O)c1c(-c2nc3cc(C(F)(F)C(F)(F)F)ncc3n2C)nc2n1CCC(C)C2 (stereo not drawn) [Example I-034, 2-(3-Ethylsulfonyl-7-methyl-5,6,7,8-tetrahydroimidazo[1,2-a]pyridin-2-yl)-3-methyl-6-(1,1,2,2,2-pentafluoroethyl)imidazo[4,5-c]pyridine] | 2.8 |  |  |  |  |
| CCS(=O)(=O)c1c(-c2nc3cc(C(F)(F)F)nc(C)c3n2C)nc2n1CCCC2 [Example I-039, 2-(3-Ethylsulfonyl-5,6,7,8-tetrahydroimidazo[1,2-a]pyridin-2-yl)-3,4-dimethyl-6-(trifluoromethyl)imidazo[4,5-c]pyridine] | 2.1 |  |  |  |  |
| CCc1nc(C(F)(F)F)cc2nc(-c3nc4n(c3S(=O)(=O)CC)CCCC4)n(C)c12 [Example I-040, 4-Ethyl-2-(3-ethylsulfonyl-5,6,7,8-tetrahydroimidazo[1,2-a]pyridin-2-yl)-3-methyl-6-(trifluoromethyl)imidazo[4,5-c]pyridine] | 2.51 |  |  |  |  |
| CCS(=O)(=O)c1c(-c2nc3cc(C(F)(F)F)ncc3n2C)nc2n1CCCC2C (stereo not drawn) [Example I-043, 2-(3-Ethylsulfonyl-8-methyl-5,6,7,8-tetrahydroimidazo[1,2-a]pyridin-2-yl)-3-methyl-6-(trifluoromethyl)imidazo[4,5-c]pyridine] | 2.31 |  |  |  |  |
| Cn1c(-c2nc3n(c2Cl)CCCC3)nc2cc(C(F)(F)F)ncc21 [Example V-001, 2-(3-Chloro-5,6,7,8-tetrahydroimidazo[1,2-a]pyridin-2-yl)-3-methyl-6-(trifluoromethyl)imidazo[4,5-c]pyridine] | 2.26 |  |  |  |  |
| CC1CCn2c(nc(-c3nc4cc(C(F)(F)C(F)(F)F)ncc4n3C)c2Br)C1 (stereo not drawn) [Example V-002, 2-(3-Bromo-7-methyl-5,6,7,8-tetrahydroimidazo[1,2-a]pyridin-2-yl)-3-methyl-6-(1,1,2,2,2-pentafluoroethyl)imidazo[4,5-c]pyridine] | 3.39 |  |  |  |  |
| Cn1c(-c2nc3n(c2Br)CCC(C)(C)C3)nc2cc(C(F)(F)F)ncc21 [Example V-003, 2-(3-Bromo-7,7-dimethyl-6,8-dihydro-5H-imidazo[1,2-a]pyridin-2-yl)-3-methyl-6-(trifluoromethyl)imidazo[4,5-c]pyridine] | 3.03 |  |  |  |  |
| CC1CCn2c(nc(C(=O)O)c2Br)C1 (stereo not drawn) [III-001, 3-Bromo-7-methyl-5,6,7,8-tetrahydroimidazo[1,2-a]pyridine-2-carboxylic acid] | 0.27 |  |  |  |  |
| CC1(C)CCn2c(nc(C(=O)O)c2Br)C1 [III-002, 3-Bromo-7,7-dimethyl-6,8-dihydro-5H-imidazo[1,2-a]pyridine-2-carboxylic acid] | 0.67 |  |  |  |  |
